# Data published in PubChem BioAssay AID1963959 (Molecular Pharmacology Branch, DTP, NCI, 2024).
# Test system: T-47D spheroids with HUVEC/MSC, viability
# Experiment: Anticancer human tumor T-47D cell line growth inhibition [PI3K];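 further: spheroids exposed to agents for seven days before reading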;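 on viability, T/C: percent of DMSO vehicle control luminescence so 100% = untreated growth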
# Settings: for viability, T/C: stronger effect = lower value
# Outline: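 Combination activity was assessed by viability in multicellular tumor spheroids carrying HUVEC and MSC components. Agents were tested with PI3K inhibitors from a Cmax-based top dose (or 10 microM) downward in half-log increments.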
# [1] = curve of first compound, second compound 0.0316 µM
# [2] = curve of first compound, second compound 0.1 µM
# [3] = curve of first compound, second compound 0.316 µM
# [4] = curve of first compound, second compound 1 µM
# [5] = second compound 0.0316 µM, first compound 0.0316 µM
# [6] = second compound 0.0316 µM, first compound 0.1 µM
# [7] = second compound 0.0316 µM, first compound 0.316 µM
# [8] = second compound 0.0316 µM, first compound 1 µM
# [9] = second compound 0.0316 µM, first compound 3.16 µM
# [10] = second compound 0.0316 µM, first compound 10 µM
# [11] = second compound 0.1 µM, first compound 0.0316 µM
# [12] = second compound 0.1 µM, first compound 0.1 µM
# [13] = second compound 0.1 µM, first compound 0.316 µM
# [14] = second compound 0.1 µM, first compound 1 µM
# [15] = second compound 0.1 µM, first compound 3.16 µM
# [16] = second compound 0.1 µM, first compound 10 µM
# [17] = second compound 0.316 µM, first compound 0.0316 µM
# [18] = second compound 0.316 µM, first compound 0.1 µM
# [19] = second compound 0.316 µM, first compound 0.316 µM
# [20] = second compound 0.316 µM, first compound 1 µM
# [21] = second compound 0.316 µM, first compound 3.16 µM
# [22] = second compound 0.316 µM, first compound 10 µM
# [23] = second compound 1 µM, first compound 0.0316 µM
# [24] = second compound 1 µM, first compound 0.1 µM
# [25] = second compound 1 µM, first compound 0.316 µM
# [26] = second compound 1 µM, first compound 1 µM
# [27] = second compound 1 µM, first compound 3.16 µM
# [28] = second compound 1 µM, first compound 10 µM
# [29] = curve of first compound, second compound 3.16 µM
# [30] = curve of first compound, second compound 10 µM
# [31] = second compound 3.16 µM, first compound 0.0316 µM
# [32] = second compound 3.16 µM, first compound 0.1 µM
# [33] = second compound 3.16 µM, first compound 0.316 µM
# [34] = second compound 3.16 µM, first compound 1 µM
# [35] = second compound 3.16 µM, first compound 3.16 µM
# [36] = second compound 3.16 µM, first compound 10 µM
# [37] = second compound 10 µM, first compound 0.0316 µM
# [38] = second compound 10 µM, first compound 0.1 µM
# [39] = second compound 10 µM, first compound 0.316 µM
# [40] = second compound 10 µM, first compound 1 µM
# [41] = second compound 10 µM, first compound 3.16 µM
# [42] = second compound 10 µM, first compound 10 µM
compound,measurement,setting,value
CC(Cn1ccc(-c2ccc(C#N)c(Cl)c2)n1)NC(=O)c1cc(C(C)O)[nH]n1 (stereo not drawn) + CC(Nc1ccc2c(c1)OCCn1cc(N3C(=O)OCC3C(F)F)nc1-2)C(N)=O,IC50,"curve of first compound, second compound 0.00316 µM",> 10 µM
same,IC50,"curve of first compound, second compound 0.01 µM",> 10 µM
same,IC50,[1],> 10 µM
same,IC50,[2],> 10 µM
same,IC50,[3],> 10 µM
same,IC50,[4],0.25 µM
same,"viability, T/C","second compound 0.00316 µM, first compound 0.0316 µM",92.5%
same,"viability, T/C","second compound 0.00316 µM, first compound 0.1 µM",91.2%
same,"viability, T/C","second compound 0.00316 µM, first compound 0.316 µM",83.2%
same,"viability, T/C","second compound 0.00316 µM, first compound 1 µM",79.1%
same,"viability, T/C","second compound 0.00316 µM, first compound 3.16 µM",88.5%
same,"viability, T/C","second compound 0.00316 µM, first compound 10 µM",59.3%
same,"viability, T/C","second compound 0.01 µM, first compound 0.0316 µM",114%
same,"viability, T/C","second compound 0.01 µM, first compound 0.1 µM",85.7%
same,"viability, T/C","second compound 0.01 µM, first compound 0.316 µM",92.1%
same,"viability, T/C","second compound 0.01 µM, first compound 1 µM",73.5%
same,"viability, T/C","second compound 0.01 µM, first compound 3.16 µM",92.2%
same,"viability, T/C","second compound 0.01 µM, first compound 10 µM",63.2%
same,"viability, T/C",[5],125%
same,"viability, T/C",[6],98%
same,"viability, T/C",[7],76.2%
same,"viability, T/C",[8],83.2%
same,"viability, T/C",[9],90.6%
same,"viability, T/C",[10],62.7%
same,"viability, T/C",[11],83.1%
same,"viability, T/C",[12],76.5%
same,"viability, T/C",[13],76.2%
same,"viability, T/C",[14],72.1%
same,"viability, T/C",[15],87.7%
same,"viability, T/C",[16],67.2%
same,"viability, T/C",[17],65.8%
same,"viability, T/C",[18],65.7%
same,"viability, T/C",[19],55.2%
same,"viability, T/C",[20],57.3%
same,"viability, T/C",[21],60.2%
same,"viability, T/C",[22],53.5%
same,"viability, T/C",[23],87.2%
same,"viability, T/C",[24],56.4%
same,"viability, T/C",[25],46.8%
same,"viability, T/C",[26],46.1%
same,"viability, T/C",[27],54.7%
same,"viability, T/C",[28],41.4%
CC(C)n1nc(-c2ccc3oc(N)nc3c2)c2c(N)ncnc21,"viability, T/C",compound 0.000316 µM,104% [middle of 4 runs]
same,"viability, T/C",compound 0.001 µM,96.4% [middle of 4 runs]
same,"viability, T/C",compound 0.00316 µM,97.8% [middle of 4 runs]
same,"viability, T/C",compound 0.0316 µM,87.3% [middle of 4 runs]
same,"viability, T/C",compound 0.1 µM,35.7% [middle of 4 runs]
same,IC50,curve of compound,70.6 nM [middle of 4 runs]
Cn1cnc2c(F)c(Nc3ccc(Br)cc3Cl)c(C(=O)NOCCO)cc21,"viability, T/C",compound 0.00949 µM,98.5% [middle of 4 runs]
same,"viability, T/C",compound 0.0949 µM,95.3% [middle of 4 runs]
same,"viability, T/C",compound 0.3 µM,98.9% [middle of 4 runs]
same,"viability, T/C",compound 0.949 µM,88% [middle of 4 runs]
same,"viability, T/C",compound 3 µM,95.5% [middle of 4 runs]
same,IC50,curve of compound,> 3 µM
C=CC(=O)N1CCN(c2nc(=O)n(-c3c(C)ccnc3C(C)C)c3nc(-c4c(O)cccc4F)c(F)cc23)C(C)C1 (stereo not drawn) + Cc1nc(NC(=O)N2CCCC2C(N)=O)sc1-c1ccnc(C(C)(C)C(F)(F)F)c1,IC50,[1],> 10 µM
same,IC50,[2],> 10 µM
same,IC50,[3],> 10 µM
same,IC50,[4],> 10 µM
same,IC50,[29],> 10 µM
same,IC50,[30],< 0.0316 µM
same,"viability, T/C",[5],112%
same,"viability, T/C",[6],92.4%
same,"viability, T/C",[7],102%
same,"viability, T/C",[8],84.8%
same,"viability, T/C",[9],88.8%
same,"viability, T/C",[10],98.5%
same,"viability, T/C",[11],105%
same,"viability, T/C",[12],89.7%
same,"viability, T/C",[13],97.2%
same,"viability, T/C",[14],77.8%
same,"viability, T/C",[15],116%
same,"viability, T/C",[16],106%
same,"viability, T/C",[17],83.8%
same,"viability, T/C",[18],96%
same,"viability, T/C",[19],86.7%
same,"viability, T/C",[20],99%
same,"viability, T/C",[21],91.5%
same,"viability, T/C",[22],99.4%
same,"viability, T/C",[23],96.1%
same,"viability, T/C",[24],98%
same,"viability, T/C",[25],84.1%
same,"viability, T/C",[26],100%
same,"viability, T/C",[27],99.4%
same,"viability, T/C",[28],101%
same,"viability, T/C",[31],65.1%
same,"viability, T/C",[32],77.5%
same,"viability, T/C",[33],77.9%
same,"viability, T/C",[34],75.9%
same,"viability, T/C",[35],85.4%
same,"viability, T/C",[36],95.3%
same,"viability, T/C",[37],37%
same,"viability, T/C",[38],36.7%
same,"viability, T/C",[39],41.2%
same,"viability, T/C",[40],45%
same,"viability, T/C",[41],53%
same,"viability, T/C",[42],59.5%
C[C@@H](NC(=O)c1ncnc(N)c1Cl)c1ncc(C(=O)Nc2cc(C(F)(F)F)c(Cl)cn2)s1 + Cc1nc(NC(=O)N2CCCC2C(N)=O)sc1-c1ccnc(C(C)(C)C(F)(F)F)c1,IC50,[1],> 10 µM
same,IC50,[2],> 10 µM
same,IC50,[3],> 10 µM
same,IC50,[4],> 10 µM
same,IC50,[29],> 10 µM
same,IC50,[30],< 0.0316 µM
same,"viability, T/C",[5],108%
same,"viability, T/C",[6],99.6%
same,"viability, T/C",[7],88.5%
same,"viability, T/C",[8],87.2%
same,"viability, T/C",[9],88%
same,"viability, T/C",[10],102%
same,"viability, T/C",[11],109%
same,"viability, T/C",[12],80.1%
same,"viability, T/C",[13],105%
same,"viability, T/C",[14],80.6%
same,"viability, T/C",[15],93%
same,"viability, T/C",[16],99.5%
same,"viability, T/C",[17],94.3%
same,"viability, T/C",[18],99.5%
same,"viability, T/C",[19],109%
same,"viability, T/C",[20],86.8%
same,"viability, T/C",[21],97.7%
same,"viability, T/C",[22],97.3%
same,"viability, T/C",[23],88%
same,"viability, T/C",[24],86.7%
same,"viability, T/C",[25],90.4%
same,"viability, T/C",[26],91.4%
same,"viability, T/C",[27],95.6%
same,"viability, T/C",[28],100%
same,"viability, T/C",[31],78%
same,"viability, T/C",[32],69.3%
same,"viability, T/C",[33],68.1%
same,"viability, T/C",[34],64%
same,"viability, T/C",[35],74%
same,"viability, T/C",[36],73.2%
same,"viability, T/C",[37],36.7%
same,"viability, T/C",[38],37.1%
same,"viability, T/C",[39],41.8%
same,"viability, T/C",[40],36.7%
same,"viability, T/C",[41],40%
same,"viability, T/C",[42],46.6%
